What was measured:
[1] = test system: healthy women in their 20's to 30's; details: 17 subjects, subjective five-grade evaluation, FIG. 6
Method: (§1) In the verification test using this method, hydrogen mainly produced by the hydrogen generating device (an electrolytic hydrogen gas suction tool 100 which will be described later) is orally suctioned. More specifically, hydrogen generated by the hydrogen generatingor device 100 is suctioned by spontaneous breathing for approximately 10 minutes. The amount of hydrogen generated per minute is 8 cc per minute by electrolysis (4 cc of oxygen is also generated at the same time) and thus, 12 cc per minute of a gas mixture of oxygen/hydrogen is generated. This gas mixture is suctioned by spontaneous breathing. Normally, since an adult suctions approximately 5 litters of air per minute under spontaneous breathing, assuming that all the generated gas mixture is suctioned, the gas mixture at 0.24% at the maximum (hydrogen 0.18%, oxygen 0.06%) is contained in an expiratory air.
The subjects were 20 selected subjects, grouped into two groups, considering the ages and test time slots (morning and afternoon), and measurement was conducted for 10 subjects a day.
The testing method is as follows: • (1) In the main test, each subject should suction hydrogen. • (2) Tests/evaluations which will be described later shall be conducted for each subject while each subject is suctioning hydrogen, and by comparing/examining each evaluation before and after the suctioning, physiological effects by hydrogen is verified. • (3) For the subject who is sitting on a chair for measurement with his/her eyes open, a test manager or a test cooperator prepares a hydrogen generating tool (not generating hydrogen) which is a control and assigns it to the subject. The subject shall put his/her mouth to a nozzle 5 of an electrolytic hydrogen gas suction tool 100 which is this hydrogen generating device (see FIGS. 7 to 10) or a tube portion connected to that and normally breath for approximately 10 minutes. After that, each measurement which will be described later is conducted at any time. After that, the subject puts his/her mouth to the nozzle 5 of the electrolytic hydrogen gas suction tool 100 which generates hydrogen or the tube portion connected to that as a subject sample and suctions hydrogen for 10 minutes similarly. After that, each measurement is made. If abnormality is found in the subject while the subject is suctioning hydrogen, the test manager or the test cooperator shall immediately stop the suctioning. When the suctioning of hydrogen is stopped, the practitioner shall record the fact of the stop and suctioning time in a clinical report. • (4) The test manager shall check if a harmful phenomenon has occurred in the subject during the test or not.
(§2) For an action of the central nervous activity by hydrogen, a brain stress test utilized for the purpose of evaluating an activity degree and a stress degree of the brain is conducted, and the brain activity degree (degree of fatigue) is measured by a flicker device. Moreover, influences of a sight function, a skin sensibility function, a gravity balance function and the like are measured by a brain executive function meter. For a change in emotional feelings, an ability of concentration, sleepiness and the like are examined by interview by using a multilateral emotional state scale. The respective measurements will be described in brief below.

[2] = test system: healthy women in their 20's to 30's; details: 17 subjects, before vs after suctioning, Table 1 and FIG. 1
Method: as §1
The subjects were 20 selected subjects, grouped into two groups, considering the ages and test time slots (morning and afternoon), and measurement was conducted for 10 subjects a day. […]

[3] = test system: healthy women in their 20's to 30's; details: 17 subjects, evaluation in score
Method: as §1, with “air. […]” for “air.”
as §2, with “For a change in emotional feelings, an ability of concentration, sleepiness and the like are examined by interview by using a multilateral emotional state scale. The respective measurements will be described in brief below.” left out

[4] = test system: healthy women in their 20's to 30's; details: 17 subjects, before vs after suctioning, Table 2 and FIG. 2
Method: as §1, with “Normally, since an adult suctions approximately 5 litters of air per minute under spontaneous breathing, assuming that all the generated gas mixture is suctioned, the gas mixture at 0.24% at the maximum (hydrogen 0.18%, oxygen 0.06%) is contained in an expiratory air.” left out
By paying attention to a physiological reaction that a skin temperature of a distal end section (the forehead center part and a first knuckle-joint cushion side part of the index finger are measured this time) is changed in accordance with predominance of the sympathetic nervous activity, the change in the skin temperature is measured by a temperature sensor over time before and after drinking of the hydrogen solution. The temperature sensor body has an approximate size of a thickness of 1 mm and a diameter of 3 mm, and the change in the skin temperature is measured by a recorder in a wired manner from the sensor.

[5] = test system: healthy women in their 20's to 30's; details: 17 subjects, Table 4 and FIG. 5
Method: as §1, with “Normally, since an adult suctions approximately 5 litters of air per minute under spontaneous breathing, assuming that all the generated gas mixture is suctioned, the gas mixture at 0.24% at the maximum (hydrogen 0.18%, oxygen 0.06%) is contained in an expiratory air.” left out
as §2, with “For a change in emotional feelings, an ability of concentration, sleepiness and the like are examined by interview by using a multilateral emotional state scale. The respective measurements will be described in brief below.” left out
Actions to the brain executive functions (right-and-left cognitive function, sight function, short-time memory, skin sensibility, gravity balance and the like are comprehensively analyzed) are analyzed (measurement instrument: Brain executive function meter by Anima).

[HH] [hydrogen]
fatigue feeling, change by hydrogen suctioning [1]: decreased
feeling of concentration, change by hydrogen suctioning [1]: significantly raised
feeling of exhilarating, change by hydrogen suctioning [1]: significantly raised
feeling of refreshing, change by hydrogen suctioning [1]: significantly raised
spontaneous stress, change by hydrogen suctioning [1]: decreased
pupil contraction rate (CR value), change by hydrogen suctioning [2]: significantly increased
brain stress, change by hydrogen suctioning ([3]; Table 3 and FIG. 3): significantly decreased
brain rotation degree score, change by hydrogen suctioning ([3]; Table 3 and FIG. 4): significantly raised
peripheral skin temperature, change by hydrogen suctioning [4]: significantly raised
right-and-left cognitive function, change by hydrogen suctioning [5]: remarkable improvement
short-term memory, change by hydrogen suctioning [5]: remarkable improvement

Reference: patent publication US20200121884A1, “BIOACTIVATION METHOD FOR ENHANCING NEURAL ACTIVITY AND BLOOD C[…] OF LIVING BODY” (Aqua Bank CO.,LTD., priority 2017, published 2020)
